In US11274097B2, “2-(het)aryl-substituted condensed bicyclic heterocycle derivatives as pest control agents” (BAYER CROPSCIENCE AKTIENGESELLSCHAFT, priority 2014, dated 2022):
“And” between values parts separate entries of the source, which are not always exact repeats. Equal entries are not always repeated.

Tests used:
Myzus persicae [1] = test: Myzus persicae contact test (MYZUPE c); format: in vivo; conditions: 2.4 g/ha, 14 dat
Procedure: Myzus persicae—Contact Test (MYZUPE c)
(§1) Solvent: 7 parts by weight of dimethylformamide
(§2) Emulsifier: alkylaryl poly glycol ether
(§3) To produce an appropriate active ingredient formulation, 1 part by weight of active ingredient is dissolved using the stated parts by weight of solvent and made up with water containing an emulsifier concentration of 1000 ppm until the desired concentration is attained. To produce further test concentrations, the preparation is diluted with emulsifier-containing water. In the event that addition of ammonium salts or/and penetrants (rapeseed oil methyl ester) is required, these are each pipetted in a concentration of 1000 ppm after the finished formulation solution has been diluted.
One-leaved bell pepper plants (Capsicum annuum) heavily infested by the green peach aphid (Myzus persicae) are treated by spraying the underside of the leaf with the active ingredient formulation in the desired concentration.
(§4) After the desired time, the kill in % is determined. 100% means that all the aphids have been killed and 0% means that none of the aphids have been killed.

Myzus persicae [2] = test: Myzus persicae translaminar test (MYZUPE t); format: in vivo; conditions: 14 dat
Procedure: Myzus persicae—Translaminar Test (MYZUPE t)
as §1, §2, §3
One-leaved bell pepper plants (Capsicum annuum) heavily infested by the green peach aphid (Myzus persicae) are treated by spraying the top side of the leaf with the active ingredient formulation in the desired concentration.
as §4

Aphis gossypii [3] = test: Aphis gossypii contact test (APHIGO c); format: in vivo; conditions: 2.4 g/ha, 7 dat
Procedure: Aphis gossypii—Contact Test (APHIGO c)
as §1
(§5) Emulsifier: alkylaryl polyglycol ether
as §3
One-leaved cotton plants (Gossypium hirsutum) heavily infested by the cotton aphid (Aphis gossypii) are treated by spraying the underside of the leaf with the active ingredient formulation in the desired concentration.
as §4

Aphis gossypii [4] = test: Aphis gossypii translaminar test (APHIGO t); format: in vivo; conditions: 2.4 g/ha, 7 dat
Procedure: Aphis gossypii—Translaminar Test (APHIGO t)
as §1, §5, §3
One-leaved cotton plants (Gossypium hirsutum) heavily infested by the cotton aphid (Aphis gossypii) are treated by spraying the top side of the leaf with the active ingredient formulation in the desired concentration.
as §4

Nephotettix cincticeps = Nephotettix cincticeps test (NEPHCI); format: in vivo; conditions: 0.16 ppm
Procedure: Nephotettix cincticeps Test (NEPHCI)
as §1, §5, §3
Rice plants (Oryza sativa, var. Balilla) are treated by spraying with the active ingredient formulation in the desired concentration and then populated with larvae of the green rice leafhopper (Nephotettix cincticeps).
After the desired time, the kill in % is determined. 100% means that all leafhoppers have been killed; 0% means that none of the leafhoppers have been killed.

Nilaparvata lugens = Nilaparvata lugens test (NILALU); format: in vivo; conditions: 4 ppm
Procedure: Nilaparvata lugens Test (NILALU)
as §1, §5, §3
Rice plants (Oryza sativa, var. Balilla) are treated by spraying with the active ingredient formulation in the desired concentration and then populated with L3 larvae of the brown planthopper (Nilaparvata lugens).
After the desired time, the feeding damage in % is determined. 100% means that no feeding damage is found; 0% means that the feeding damage to the treated plant corresponds to that of the untreated control.

[5] = log P by HPLC on a reversed-phase column (C 18), EEC Directive 79/831 Annex V.A8; format: physicochemical; conditions: 55° C.; for LOGP_HCOOH: acidic range, pH 2.7, 0.1% aqueous formic acid/acetonitrile; for LOGP_NEUTRAL: neutral range, pH 7.8, 0.001 molar aqueous ammonium hydrogencarbonate/acetonitrile
Procedure: The log P values are measured according to EEC Directive 79/831 Annex V.A8 by HPLC (high-performance liquid chromatography) on a reversed-phase column (C 18). Temperature: 55° C. The LC-MS determination in the acidic range is effected at pH 2.7 using 0.1% aqueous formic acid and acetonitrile (contains 0.1% formic acid) as eluents, linear gradient from 10% acetonitrile to 95% acetonitrile. Called log P (HCOOH) in the table. LC-MS determination in the neutral range is effected at pH 7.8 with 0.001 molar aqueous ammonium hydrogencarbonate solution and acetonitrile as eluents; linear gradient from 10% acetonitrile to 95% acetonitrile. Called log P (neutral) in the table. Calibration is effected with unbranched alkan-2-ones (having 3 to 16 carbon atoms) with known log P values (log P values determined on the basis of the retention times by linear interpolation between two successive alkanone s).

Phaedon cochleariae = Phaedon cochleariae spray test (PHAECO); format: in vivo; conditions: larvae, after 7 days
Procedure: Phaedon cochleariae—Spray Test (PHAECO)
(§6) Solvent: 78.0 parts by weight of acetone • • 1.5 parts by weight of dimethylformamide
as §5
(§7) To produce an appropriate active ingredient formulation, 1 part by weight of active ingredient is dissolved using the stated parts by weight of solvent and made up with water containing an emulsifier concentration of 1000 ppm until the desired concentration is attained. To produce further test concentrations, the preparation is diluted with emulsifier-containing water.
Discs of Chinese cabbage leaves (Brassica pekinensis) are sprayed with an active ingredient formulation of the desired concentration and, after drying, populated with larvae of the mustard beetle (Phaedon cochleariae).
After 7 days, the efficacy in % is determined. 100% means that all the beetle larvae have been killed; 0% means that no beetle larvae have been killed.

Myzus persicae [6] = test: Myzus persicae spray test (MYZUPE), bell pepper plants; format: in vivo; conditions: application rate 100 ppm, after 6 days
Procedure: (§8) Myzus persicae—Spray Test (MYZUPE)
as §1, §2
To produce an appropriate active ingredient formulation, 1 part by weight of active ingredient is dissolved using the stated parts by weight of solvent and made up with water containing an emulsifier concentration of 1000 ppm until the desired concentration is attained. To produce further test concentrations, the preparation is diluted with emulsifier-containing water. If the addition of ammonium salts or/and penetrants is required, these are each added in a concentration of 1000 ppm to the formulation solution.
Bell pepper plants (Capsicum annuum) heavily infested by the green peach aphid (Myzus persicae) are treated by spraying with the active ingredient formulation in the desired concentration.
After 6 days, the kill in % is determined. 100% means that all the aphids have been killed; 0% means that no aphids have been killed.

Ctenocephalides felis = Ctenocephalides felis in vitro contact test; format: in vivo; conditions: application rate 5 μg/cm^2; adult cat fleas; after 48 h
Procedure: Ctenocephalides felis—In Vitro Contact Test
For the coating of the test tubes, 9 mg of active ingredient are first dissolved in 1 ml of acetone p.a. and then diluted to the desired concentration with acetone p.a. 250 μl of the solution are distributed homogeneously on the inner walls and base of a 25 ml test tube by turning and rocking on an orbital shaker (rocking rotation at 30 rpm for 2 h). With 900 ppm active ingredient solution and internal surface 44.7 cm^2, given homogeneous distribution, an area-based dose of 5 μg/cm^2 is achieved.
After the solvent has evaporated off, the tubes are populated with 5-10 adult cat fleas (Ctenocephalides felis), sealed with a perforated plastic lid and incubated in a horizontal position at room temperature and ambient humidity. After 48 h, efficacy is determined. To this end, the test tubes are stood upright and the fleas are knocked to the base of the tube. Fleas which remain motionless at the base or move in an uncoordinated manner are considered to be dead or moribund.
100% efficacy means that all the fleas were dead or moribund. 0% efficacy means that no fleas were harmed.

Lucilia cuprina = Lucilia cuprina test (LUCICU); format: in vivo; conditions: application rate 100 ppm; L1 larvae; after 2 days
Procedure: Lucilia cuprina Test (LUCICU) Solvent: dimethyl sulphoxide To produce an appropriate active ingredient formulation, 10 mg of active ingredient are mixed with 0.5 ml of dimethyl sulphoxide, and the concentrate is diluted with water to the desired concentration. About 20 L1 larvae of the Australian sheep blowfly (Lucilia cuprina) are transferred into a test vessel containing minced horsemeat and the active ingredient preparation of the desired concentration. After 2 days, the kill in % is determined. 100% means that all the larvae have been killed; 0% means that none of the larvae have been killed.

Myzus persicae [7] = test: Myzus persicae spray test (MYZUPE), Chinese cabbage leaf discs; format: in vivo; conditions: application rate 500 g/ha, after 6 days
Procedure: as §8
Solvent: 78 parts by weight of acetone • • 1.5 parts by weight of dimethylformamide
as §2, §7
Discs of Chinese cabbage leaves (Brassica pekinensis) infested by all stages of the green peach aphid (Myzus persicae) are sprayed with an active ingredient formulation of the desired concentration.
After 6 days, the efficacy in % is determined. 100% means that all the aphids have been killed; 0% means that none of the aphids have been killed.

Spodoptera frugiperda = Spodoptera frugiperda spray test (SPODFR); format: in vivo; conditions: application rate 500 g/ha; maize leaf discs; after 7 days
Procedure: Spodoptera frugiperda—Spray Test (SPODFR)
as §6, §5, §7
Leaf discs of maize (Zea mays) are sprayed with an active ingredient formulation of the desired concentration and, after drying, populated with caterpillars of the armyworm (Spodoptera frugiperda).
After 7 days, the efficacy in % is determined. 100% means that all the caterpillars have been killed; 0% means that no caterpillars have been killed.

Tetranychus urticae = Tetranychus urticae spray test, OP-resistant (TETRUR); format: in vivo; conditions: application rate 500 g/ha; bean leaf discs; after 6 days
Procedure: Tetranychus urticae—Spray Test, OP-Resistant (TETRUR)
as §6, §5, §7
Discs of bean leaves (Phaseolus vulgaris) infested by all stages of the greenhouse red spider mite (Tetranychus urticae) are sprayed with an active ingredient formulation of the desired concentration.
After 6 days, the efficacy in % is determined. 100% means that all the spider mites have been killed; 0% means that none of the spider mites have been killed.

Meloidogyne incognita = Meloidogyne incognita test; format: in vivo; conditions: application rate 20 ppm; lettuce; after 14 days
Procedure: Meloidogyne incognita Test Solvent: 125.0 parts by weight of acetone To produce a suitable active ingredient formulation, 1 part by weight of active ingredient is mixed with the stated amount of solvent and the concentrate is diluted with water to the desired concentration. Vessels are filled with sand, active ingredient solution, an egg/larvae suspension of the southern root-knot nematode (Meloidogyne incognita) and lettuce seeds. The lettuce seeds germinate and the plants develop. The galls develop on the roots. After 14 days, the nematicidal efficacy in % is determined by the formation of galls. 100% means that no galls were found; 0% means that the number of galls on the treated plants corresponds to the untreated control.

In the case of `CCS(=O)(=O)c1cc(C(F)(F)F)cnc1-c1nc2cc(C(F)(F)F)cnc2n1C` [Ex. 5 known from WO2013018928], the “% efficacy” value (Myzus persicae [1]) is reported as 50%, the “% efficacy” value (Myzus persicae [2]; 2.4 g/ha) is reported as 0% and the “% efficacy” value (Myzus persicae [2]; 12 g/ha) is reported as 0%. For the same molecule, the “% efficacy” value (Aphis gossypii [3]) was 15%, the “% efficacy” value (Aphis gossypii [4]) was 0% and the “% efficacy” value (Nephotettix cincticeps; 14 dat) was 0%. The “% efficacy” value (Nephotettix cincticeps; 21 dat) was 0%, the “% efficacy” value (Nephotettix cincticeps; 34 dat) was 0% and the “% efficacy” value (Nilaparvata lugens; 21 dat) was 35%. The “% efficacy” value (Nilaparvata lugens; 28 dat) was 20%.

`Cn1c(-c2ccc(Cl)cc2S(C)(=O)=O)nc2cc(C(F)(F)F)ncc21` [Example I-11] showed an LOGP_HCOOH [5] of 2.39, an LOGP_NEUTRAL [5] of 2.34 and an efficacy (Phaedon cochleariae; application rate 100 g/ha) of 100%. The “efficacy (kill)” value (Myzus persicae [6]) was 97%.

With `CCS(=O)(=O)c1ccccc1-c1nc2cc(C(F)(F)F)ncc2n1C` [Example I-18] the LOGP_HCOOH [5] was 2.13, the LOGP_NEUTRAL [5] was 2.11 and the efficacy (Ctenocephalides felis) was 100%. The “efficacy (kill)” value (Lucilia cuprina) was 100%, the efficacy (Myzus persicae [7]) was 100% and 90% and the efficacy (Phaedon cochleariae; application rate 500 g/ha) was 100%.

Work on `CCS(=O)(=O)c1cccnc1-c1nc2cc(C(F)(F)C(F)(F)F)ncc2n1C` [Example I-68] yielded an LOGP_HCOOH [5] of 2.50, an LOGP_NEUTRAL [5] of 2.46 and an efficacy (Myzus persicae [7]) of 90%. It also gave an efficacy (Phaedon cochleariae; application rate 500 g/ha) of 100%, an efficacy (Spodoptera frugiperda) of 100% and an efficacy (Tetranychus urticae) of 100%. For the same molecule, the “nematicidal efficacy (formation of galls)” value (Meloidogyne incognita) was 100%.
